Results as given in patent US8580308B2, “Modafinil pharmaceutical compositions” (Cephalon, Inc., priority 2002, dated 2013).

Key:
density of modafinil = format: physicochemical
From the text: Although primarily described herein with respect to “cumulative total number of particles,” it is within the ability of one skilled in the art to also make blends based upon weight of the portions used from each of the discrete lots, as detailed above. In particular, the density of modafinil is about 0.50 grams per cubic centimeter (bulk density) and about 0.60 grams per cubic centimeter (tap density). Using the density information, the statistical information that is described herein, and assuming the particles of modafinil are spherical, accurate determinations of the appropriate weight of particles in each discrete lot can be made. Similar calculations can be made with respect to the surface area of the particles.

[1] = mice, single administration; cited from earlier work
[2] = monkeys, single administration; cited from earlier work
[3] = humans; cited from earlier work

In the case of `NC(=O)C[S+]([O-])C(c1ccccc1)c1ccccc1` (centres unmarked) [modafinil, 2-(benzhydrylsulfinyl)acetamide], the bulk density (density of modafinil) is listed as “about 0.50 grams per cubic centimeter”, the tap density (density of modafinil) is listed as “about 0.60 grams per cubic centimeter” and the locomotor activity [1] is listed as “increased locomotor activity”. For the same molecule, the nocturnal activity [2] was “increased nocturnal activity” and the “treatment of idiopathic hypersomnia and narcolepsy” value [3] was “successfully tested”.
